Structures are written as SMILES.

The results in this text go back to EP0080940B1, “Derivatives of 2-phenyl-morpholine and medical compositions” (LABORATOIRE L. LAFON Société anonyme dite:, priority 1981, dated 1983).

Format in all cases: in vivo
In data set [1] the test system is souris. The data set is described as follows: Motility reduced by habituation to the enclosure. The following applies: 64 mg/kg i.p. On the procedure: Après 18 h de séjour dans les actimètres, les souris (6 par dose, 12 témoins) reçoivent le CRL 40914. Elles sont aussitôt replacées dans leurs enceintes respectives et, une demi-heure plus tard, on enregistre leur motilité pendant 30 min.
(§1) On a résumé ci-après les résultats des essais qui ont été entrepris chez l'animal avec le CRL 40915, les modalités opératoires étant celles données ci-dessus pour le CR L 40914.

For data set [2], the system named is souris. The data set is described as follows: Four plates test, traction and electroshock.
Description: Le test est pratiqué sur des lots de 10 souris, une demi-heure après l'administration de CRL 40914.
as §1

Data set [3] relates to souris. The data set is described as follows: Motility reduced by hypoxic aggression. To be noted: i.p., anoxie hypobare aiguë. On the procedure:
Une demi-heure après avoir reçu le CRL 40914, les souris (10 par dose, 20 témoins) sont soumises à une anoxie hypobare aiguë [dépression de 600 mm Hg (soit environ 8 x10^4 pascals) en 90 s puis détente de 45 s] puis elles sont placées en actimètre où leur motilité est enregistrée pendant 10min.
as §1

Data set [4] relates to rats. Put plainly: Search for stereotyped movements. The following applies: rat. On the procedure: Des lots de 6 rats reçoivent une injection intrapéritonéale de CRL 40914 ou d'amphétamine puis sont immédiatement placés dans des boîtes de petites dimensions où leur comportement stéréotypé est coté de 0 à 3 toutes les 10 min jusqu'à extinction de l'effet.
Data set [5] concerns souris. The data set is described as follows: Interaction with barbital. The following applies: barbital sodique 220 mg/kg i.p. As to the method:
Des lots de 10 souris reçoivent le CRL 40914 une demi-heure avant l'injection intrapéritonéale de 220 mg/kg de barbital sodique.

For data set [6], the system named is rats. Put plainly: Interaction with apomorphine, rat. The following applies: apomorphine 0,5 mg/kg s.c. As to the method:
Le CRL 40914 est administré aux rats une demi-heure avant l'injection sous-cutanée de 0,5 mg/kg d'apomorphine.
as §1

Data set [7] relates to souris. The data set is described as follows: Interaction with yohimbine, temperature. To be noted: 1 mg/kg et 16 mg/kg de CRL 40914, yohimbine 0,5 mg/kg i.p. une demi-heure avant. On the procedure:
Des lots de 12 souris reçoivent une injection intrapéritonéale de 0,5 mg/kg de yohimbine, une demi-heure avant l'administration de CRL 40914.

`CCN1CCOC(c2ccccc2)C1` (stereo not shown) [CRL 40914, Chlorhydratede 2-phényl-4-éthyl-morpholine]: the “activité motrice chez la souris habituée à son enceinte” value in the data set on souris [1] is reported as “reprise très nette de l'activité motrice”. For the same molecule, in the data set on souris [2] (64 mg/kg i.p.), the “effets létaux de l'électrochoc” value is recorded as “aggrave les effets létaux de l'électrochoc”. In the data set with souris [2] (i.p.), the “déficit moteur (traction)” value was “ne provoque pas de déficit moteur majeur”. In addition, the “nombre de passages punis (test des quatre plaques)” value in the data set on souris [2] (i.p., faible dose / forte dose) was “à faible dose une diminution, et à forte dose une augmentation du nombre de passages punis”. Further, the “activité motrice après agression hypoxique” value in the data set on souris [3] was “modifications de l'activité motrice qui reflètent son action sur la motilité spontanée”. Also, the “mouvements stéréotypés” value is given as “ne provoque pas de stéréotypies” with rats [4] (32 mg/kg i.p.), “mouvements stéréotypés d'intensité et de durée comparables à ceux observés après administration de 1 mg/kg d'amphétamine” in the data set on rats [4] (64 mg/kg i.p.) and “cet effet est encore plus net” in the data set on rats [4] (128 mg/kg i.p.). Also, the “durée du sommeil induit par le barbital” value is listed as “semble prolonger modérément la durée du sommeil induit par le barbital” with souris [5] (4 mg/kg et 16 mg/kg i.p.) and “antagonisme net” with souris [5] (64 mg/kg i.p.). The “stéréotypies induites par l'apomorphine” value in the data set with rats [6] (rat, 0,5 mg/kg, 2 mg/kg et 8 mg/kg i.p.) is recorded as “semble diminuer modérément l'intensité des téréotypies induites par l'apomorphine”; in the data set with rats [6] (rat, 32 mg/kg i.p.), “potentialisation discrète des stéréotypies”. In addition, the “hypothermie induite par le CRL 40914 après yohimbine” value in the data set with souris [7] is given as “empêche l'apparition de l'hypothermie”.
